In EP4603105A1, “PHARMACEUTICAL COMPOSITION CONTAINING CYCLIC COMPOUND HAVING SELECTIVE KRAS INHIBITORY EFFECT AGAINST HRAS AND NRAS” (CHUGAI SEIYAKU KABUSHIKI KAISHA, priority 2022, dated 2024):
Where a SMILES comes first, the peptide text is derived from it. Bridges are numbered along the chain shown (N, C = ends). [ ]: non-standard residue; d: D form. The star is where a group is joined. hPhe(3,5-F2-4-CF3) = N[C@@H](CCc1cc(F)c(C(F)(F)F)c(F)c1)C(=O)O; hPhe(3-Cl-4-CF3) = N[C@@H](CCc1ccc(C(F)(F)F)c(Cl)c1)C(=O)O; NPrPhe(4-CF3) = CCCN[C@@H](Cc1ccc(C(F)(F)F)cc1)C(=O)O; NEtPhe(4-Me) = CCN[C@@H](Cc1ccc(C)cc1)C(=O)O; NMePhe(4-Me) = CN[C@@H](Cc1ccc(C)cc1)C(=O)O; Pip(4,4-F2) = O=C(O)[C@@H]1CC(F)(F)CCN1; NMeGly(cPent) = CN[C@H](C(=O)O)C1CCCC1; Hyp = O=C(O)[C@@H]1C[C@@H](O)CN1; Gly(cBu) = N[C@H](C(=O)O)C1CCC1; NMeD = CN[C@@H](CC(=O)O)C(=O)O; NMeL = CN[C@@H](CC(C)C)C(=O)O; Morpholide = C1CN(*)CCO1; NMeA = CN[C@@H](C)C(=O)O; NMeAib = CNC(C)(C)C(=O)O; Nle = CCCC[C@H](N)C(=O)O; Piperidide = C1CCN(*)CC1; Ac5c = NC1(C(=O)O)CCCC1; Aze = O=C(O)[C@@H]1CCN1; Ac4c = NC1(C(=O)O)CCC1; NEtG = CCNCC(=O)O; Sar = CNCC(=O)O

Columns and labels:
[1] = molecular target: GDP-bound NRAS wild-type protein (Homo sapiens, UniProt P01111); test: Binding to NRAS by surface plasmon resonance (SPR), KD and KD ratio to KRAS
In short: (§1)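 Running buffer contained 10 µM GDP and 10 mM MgCl2 to keep RAS in the GDP state, with 4% DMSO at pH 7.4. Compounds were flowed at 100 µL/min in 75 s steps of rising concentration over captured biotin-Avi RAS at 30°C. Sensorgrams were fitted 1:1 for KD.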

[2] = tested on: human lung cancer strain NCI-H441; assay type: cell-based
In short: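 Step one: dispense the test compound in serial DMSO dilutions. Step three: add the reagent and measure […].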

HRAS wild-type protein = HRAS wild-type protein (Homo sapiens, UniProt P01112); test: Binding to HRAS by surface plasmon resonance (SPR), KD and KD ratio to KRAS
In short: as §1

[3] = ratio of KD value for GDP-bound NRAS wild-type protein to KD value for KRAS (SPR)
[4] = ratio of KD value for HRAS wild-type protein to KD value for KRAS (SPR)
[5] = ratio of KD for GDP-bound NRAS wild-type protein to KD for KRAS
[6] = ratio of KD for HRAS wild-type protein to KD for KRAS
[7] = ratio of the KD value with respect to GDP-bound NRAS wild-type protein to the KD value with respect to KRAS
[8] = ratio of the KD value with respect to HRAS wild-type protein to the KD value with respect to KRAS

Sequence of HRAS wild-type protein (P01112 whole entry): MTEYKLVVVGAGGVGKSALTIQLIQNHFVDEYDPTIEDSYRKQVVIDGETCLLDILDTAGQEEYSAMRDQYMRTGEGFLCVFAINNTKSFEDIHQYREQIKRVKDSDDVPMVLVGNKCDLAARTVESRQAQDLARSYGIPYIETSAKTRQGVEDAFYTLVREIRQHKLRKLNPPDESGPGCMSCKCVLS
Sequence of GDP-bound NRAS wild-type protein (P01111 whole entry): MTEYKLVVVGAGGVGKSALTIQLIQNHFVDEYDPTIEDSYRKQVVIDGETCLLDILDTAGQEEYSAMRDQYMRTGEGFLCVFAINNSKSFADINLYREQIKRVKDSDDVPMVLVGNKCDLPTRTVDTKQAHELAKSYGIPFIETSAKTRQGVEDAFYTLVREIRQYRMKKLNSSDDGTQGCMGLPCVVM

Row | IC50 [2] [nM] | Structure (SMILES) | NRAS /KRAS [1, 3] | HRAS /KRAS (HRAS wild-type protein; [4]) | NRAS /KRAS [1, 5] | HRAS /KRAS (HRAS wild-type protein; [6]) | NRAS /KRAS [1, 7] | HRAS /KRAS (HRAS wild-type protein; [8])
1 | 13.4 | CCO[C@@H]1C[C@H]2C(=O)NC3(CCC3)C(=O)N(C)[C@@H](C3CCCC3)C(=O)N(C)[C@H](C(=O)N(C)C)CC(=O)N(C)[C@@H](CC(C)C)C(=O)N[C@@H]([C@@H](C)CC)C(=O)N(C)CC(=O)N(C)[C@H]3C/C=C\CCN(C3=O)[C@@H](Cc3ccc(F)cc3C)C(=O)N(C)CC(=O)N[C@@H](CCc3cc(F)c(C(F)(F)F)c(F)c3)C(=O)N2C1 [PP1532] | A (a compound having 10 or more and less than 20 is denoted as A) | B (a compound having 3 or more and less than 10 is denoted as B) |  |  |  | 
2 | 85.9 | C=CC[C@H]1C(=O)N[C@@H]([C@@H](C)CC)C(=O)N(C)CC(=O)N(C)[C@H]2CCCCCN(C2=O)[C@@H](Cc2ccc(C(F)(F)F)cc2)C(=O)N(C)CC(=O)N[C@@H](CCc2cc(F)c(C(F)(F)F)c(F)c2)C(=O)N2C[C@H](OCC)C[C@H]2C(=O)N[C@](C)(CC=C)C(=O)N(C)[C@@H](C2CCCC2)C(=O)N(C)[C@H](C(=O)N2CCOCC2)CC(=O)N1C [PP0878] |  |  | B (a compound having 3 or more and less than 10 is denoted as B) | B (a compound having 3 or more and less than 10 is denoted as B) |  | 
3 | 0.9 | CCCN1C(=O)CN(C)C(=O)CN(C)C(=O)[C@H]([C@@H](C)CC)NC(=O)[C@H](CC(C)C)N(C)C(=O)C[C@@H](C(=O)N2CCOCC2)N(C)C(=O)[C@H](C2CCCC2)N(C)C(=O)C2(CCC2)NC(=O)[C@@H]2C[C@@H](OCC)CN2C(=O)[C@H](CCc2ccc(C(F)(F)F)c(Cl)c2)NC(=O)CN(C)C(=O)[C@@H]1Cc1ccc(C(F)(F)F)cc1 [PP0392] ([NMeL]I[Sar][Sar][NPrPhe(4-CF3)][Sar][hPhe(3-Cl-4-CF3)][Hyp](Et)[Ac4c][NMeGly(cPent)][NMeD]-Morpholide; lactam N-11) |  |  |  |  | B (a compound having 3 or more and less than 10 is denoted as B) | C (A compound having a KD ratio of 0.1 or more and less than 3 is denoted as C)
4 | 62.2 | CCCN1C(=O)CN(C)C(=O)[C@@H]2CCN2C(=O)[C@H]([C@@H](C)CC)NC(=O)[C@H](CC(C)C)N(C)C(=O)C[C@@H](C(=O)N2CCOCC2)N(C)C(=O)[C@H](C2CCCC2)N(C)C(=O)C2(CCCC2)NC(=O)[C@@H]2CCCN2C(=O)[C@H](CCc2cc(F)c(C(F)(F)F)c(F)c2)NC(=O)CN(C)C(=O)[C@@H]1Cc1ccc(C(F)(F)F)cc1 [PP0770] ([NMeL]I[Aze][Sar][NPrPhe(4-CF3)][Sar][hPhe(3,5-F2-4-CF3)]P[Ac5c][NMeGly(cPent)][NMeD]-Morpholide; lactam N-11) |  |  | B (a compound having 3 or more and less than 10 is denoted as B) | B (a compound having 3 or more and less than 10 is denoted as B) |  | 
5 | 12.1 | CCO[C@@H]1C[C@H]2C(=O)NC3(CCC3)C(=O)N(C)[C@@H](C3CCCC3)C(=O)N(C)[C@H](C(=O)N(C)CC)CC(=O)N(C)[C@@H](CC)C(=O)N[C@@H]([C@@H](C)CC)C(=O)N(C)CC(=O)N(C)[C@H]3C/C=C\CCN(C3=O)[C@@H](CC3CCC(F)(F)CC3)C(=O)N(C)CC(=O)N[C@@H](CCc3cc(F)c(C(F)(F)F)c(F)c3)C(=O)N2C1 [PP1553] | A (a compound having 10 or more and less than 20 is denoted as A) | A (a compound having 10 or more and less than 20 is denoted as A) |  |  |  | 

The remaining lines, values behind:

Row | Structure (SMILES) | IC50 [2] [nM] | NRAS /KRAS [1, 3] | HRAS /KRAS (HRAS wild-type protein; [4]) | NRAS /KRAS [1, 5] | HRAS /KRAS (HRAS wild-type protein; [6]) | NRAS /KRAS [1, 7] | HRAS /KRAS (HRAS wild-type protein; [8])
6 | CCCC[C@@H]1NC(=O)[C@H](CCc2ccc(C(F)(F)F)c(Cl)c2)NC(=O)CN(C)C(=O)[C@H](Cc2ccc(C)cc2)N(C)C(=O)CN(C)C(=O)CN(C)C(=O)[C@H]([C@@H](C)CC)NC(=O)[C@H](CC(C)C)N(C)C(=O)C[C@@H](C(=O)N2CCCCC2)N(C)C(=O)[C@H](CC(C)C)NC(=O)C(C)(C)N(C)C1=O [PP0049] ([NMeL]I[Sar][Sar][NMePhe(4-Me)][Sar][hPhe(3-Cl-4-CF3)][Nle][NMeAib]L[NMeD]-Piperidide; lactam N-11) | 201 |  |  | C (A compound having a KD ratio of 0.1 or more and less than 3 is denoted as C) | C (A compound having a KD ratio of 0.1 or more and less than 3 is denoted as C) |  | 
7 | CCCN1C(=O)[C@@H]2CCN2C(=O)[C@H](C)N(C)C(=O)[C@H]([C@@H](C)CC)NC(=O)[C@H](CC(C)C)N(C)C(=O)C[C@@H](C(=O)N2CCOCC2)N(C)C(=O)[C@H](C2CCCC2)N(C)C(=O)C2(CCCC2)NC(=O)[C@@H]2CC(F)(F)CCN2C(=O)[C@H](CCc2ccc(C(F)(F)F)c(Cl)c2)NC(=O)CN(C)C(=O)[C@@H]1Cc1ccc(C(F)(F)F)cc1 [PP0285] ([NMeL]I[NMeA][Aze][NPrPhe(4-CF3)][Sar][hPhe(3-Cl-4-CF3)][Pip(4,4-F2)][Ac5c][NMeGly(cPent)][NMeD]-Morpholide; lactam N-11) | 18.9 |  |  | C (A compound having a KD ratio of 0.1 or more and less than 3 is denoted as C) | B (a compound having 3 or more and less than 10 is denoted as B) |  | 
8 | CCC[C@H]1C(=O)N[C@@H]([C@@H](C)CC)C(=O)N(C)CC(=O)N(C)[C@H]2C/C=C\CCN(C2=O)[C@@H](Cc2ccc(C)cc2)C(=O)N(C)CC(=O)N[C@@H](CCc2ccc(Cl)c(C(F)(F)F)c2)C(=O)N2C[C@H](OCC)C[C@H]2C(=O)NC2(CC(C)(C)C2)C(=O)N(C)[C@@H](C2CCCC2)C(=O)N(C)[C@H](C(=O)N(C)C)CC(=O)N1C [PP2786] | 9.8 |  |  | A (a compound having 10 or more and less than 20 is denoted as A) | A (a compound having 10 or more and less than 20 is denoted as A) |  | 
9 | CCC[C@H]1C(=O)N[C@@H]([C@@H](C)CC)C(=O)N2CCC[C@H]2C(=O)N(C)[C@H]2C/C=C\CCN(C2=O)[C@@H](CC2CCCCC2)C(=O)N(C)CC(=O)N[C@@H](CCc2ccc(C(F)(F)F)c(OC)c2)C(=O)N2C[C@H](OCC)C[C@H]2C(=O)N(C)C2(CCC2)C(=O)N(C)[C@@H](C(CC)CC)C(=O)N(C)[C@H](C(=O)N(C)C)CC(=O)N1C [PP2341] | 133 |  |  |  |  | A (a compound having 10 or more and less than 20 is denoted as A) | A (a compound having 10 or more and less than 20 is denoted as A)
10 | CCO[C@@H]1C[C@H]2C(=O)NC3(CC(C)(C)C3)C(=O)N(C)[C@@H](C3CCCC3)C(=O)N(C)[C@H](C(=O)N(C)C)CC(=O)N(C)[C@@H](CC(C)C)C(=O)N[C@@H]([C@@H](C)CC)C(=O)N(C)CC(=O)N(C)[C@H]3C/C=C\CCN(C3=O)[C@@H](Cc3ccc(C(C)C)cc3)C(=O)N(C)CC(=O)N[C@@H](CCc3ccc(C(F)(F)F)c(OC)c3)C(=O)N2C1 [PP2692] | 7.7 |  |  | A (a compound having 10 or more and less than 20 is denoted as A) | A (a compound having 10 or more and less than 20 is denoted as A) |  | 
11 | CCCN1C(=O)CN(C)C(=O)[C@@H]2CCN2C(=O)[C@H](C2CCC2)NC(=O)[C@H](CC(C)C)N(C)C(=O)C[C@@H](C(=O)N2CCOCC2)N(C)C(=O)[C@H](C2CCCC2)N(C)C(=O)C2(CCCC2)NC(=O)[C@@H]2CCCN2C(=O)[C@H](CCc2ccc(C(F)(F)F)c(Cl)c2)NC(=O)CN(C)C(=O)[C@@H]1Cc1ccc(C(F)(F)F)cc1 [PP0305] ([NMeL][Gly(cBu)][Aze][Sar][NPrPhe(4-CF3)][Sar][hPhe(3-Cl-4-CF3)]P[Ac5c][NMeGly(cPent)][NMeD]-Morpholide; lactam N-11) | 49.6 |  |  | B (a compound having 3 or more and less than 10 is denoted as B) | C (A compound having a KD ratio of 0.1 or more and less than 3 is denoted as C) |  | 
12 | CCC[C@H]1C(=O)N[C@@H]([C@@H](C)CC)C(=O)N2CCC[C@H]2C(=O)N(C)[C@H]2C/C=C\CCN(C2=O)[C@@H](Cc2ccc(C)cc2)C(=O)N(C)CC(=O)N[C@@H](CCc2ccc(C(F)(F)F)c(OC)c2)C(=O)N2C[C@H](OCC)C[C@H]2C(=O)N(C)C2(CCC2)C(=O)N(C)[C@@H](C2CCCC2)C(=O)N(C)[C@H](C(=O)N2CCCC2)CC(=O)N1C [PP3102] | 6.7 |  |  | A (a compound having 10 or more and less than 20 is denoted as A) | A (a compound having 10 or more and less than 20 is denoted as A) |  | 
13 | CC[C@H](C)[C@@H]1NC(=O)[C@H](CC(C)C)N(C)C(=O)C[C@@H](C(=O)N2CCOCC2)N(C)C(=O)[C@H](C2CCCC2)N(C)C(=O)C2(CCCC2)NC(=O)[C@@H]2CCCN2C(=O)[C@H](CCc2ccc(C(F)(F)F)c(Cl)c2)NC(=O)CN(C)C(=O)[C@H](Cc2ccc(C)cc2)N(CC)C(=O)CN(CC)C(=O)CN(C)C1=O [PP0027] ([NMeL]I[Sar][NEtG][NEtPhe(4-Me)][Sar][hPhe(3-Cl-4-CF3)]P[Ac5c][NMeGly(cPent)][NMeD]-Morpholide; lactam N-11) | 17.1 |  |  | C (A compound having a KD ratio of 0.1 or more and less than 3 is denoted as C) | C (A compound having a KD ratio of 0.1 or more and less than 3 is denoted as C) |  | 
14 | CCC[C@H]1C(=O)N[C@@H](C2CCCCC2)C(=O)N(C)CC(=O)N(C)[C@H]2C/C=C\CCN(C2=O)[C@@H](Cc2ccc(C(F)(F)F)cc2)C(=O)N(C)CC(=O)N[C@@H](CCc2ccc(C(F)(F)F)c(Cl)c2)C(=O)N2C[C@H](OCC)C[C@H]2C(=O)NC2(CC(C)(C)C2)C(=O)N(C)[C@@H]([C@@H](C)CC)C(=O)N(C)[C@H](C(=O)N(C)C)CC(=O)N1C [PP3015] | 103 |  |  | AA (a compound having 20 or more is denoted as AA) | A (a compound having 10 or more and less than 20 is denoted as A) |  | 
